Measured values published in US20250082674A1, “METHODS OF TREATING COPPER METABOLISM-ASSOCIATED DISEASES OR DISORDERS” (priority 2021, published 2025).
Like-named read-outs stand apart in the source and are kept apart here.

What was measured:
[1] = test system: ^64Cu hepatic uptake, biliary copper excretion; conditions: 4 WD patients, FIG. 30
Description: 15 minutes after intravenous administration of ^64Cu, a dynamic PET-MR scan was performed, followed by additional scans at 1, 2, 6, 20, 48, 54, and 68 hours. Venous blood samples were collected for quantitation of radioactivity at multiple time points.
The post-treatment ^64Cu PET-MR study was initiated on the 7th day, with serial PET-MR imaging conducted 1, 2, 6, 20, 48, 54, and 68 hours after intravenous administration of ^64Cu.
The study also assessed the kinetics of ^64Cu in the blood and its distribution among organs of interest. The SUV allows for semiquantitative assessment of copper in a desired volume of interest by measuring the ratio of observed copper activity to the total dose administered.

[2] = in vivo
From the text: (§1) These participants had all intake (food and drink) and output (urine and feces) collected from Day-4 through Day-1 (baseline), from Day 1 through Day 8, and Day 25 through Day 39.

copper = test system: copper
From the text: as §1

Bis-choline tetrathiomolybdate [BC-TTM]
mean SUV for the other organs after treatment [1]: did not change
participants in whom dose escalation was not carried out due to elevation of liver enzymes [2]: 2 participants
Increase from Baseline in Directly Measured NCC, Mean (SD) (copper; Study 204, Day 1, 2 Hours Post-Dose): 0.5004 (0.7105) μmol/L
Increase from Baseline in Directly Measured NCC, Mean (SD) (copper; Study 204, Day 1, 4 Hours Post-Dose): 1.96 (1.804) μmol/L
Increase from Baseline in Directly Measured NCC, Mean (SD) (copper; Study 204, Day 1, 5 Hours Post-Dose): 2.719 (2.534) μmol/L
Increase from Baseline in Directly Measured NCC, Mean (SD) (copper; Study 204, Day 1, 6 Hours Post-Dose): 2.324 (2.086) μmol/L
Increase from Baseline in Directly Measured NCC, Mean (SD) (copper; Study 204, Day 1, 8 Hours Post-Dose): 2.402 (2.183) μmol/L
Increase from Baseline in Directly Measured NCC, Mean (SD) (copper; Study 204, Day 1, 12 Hours Post-Dose): 1.725 (1.575) μmol/L
Increase from Baseline in Directly Measured NCC, Mean (SD) (copper; Study 204, Day 1, 24 Hours Post-Dose): 1.063 (1.074) μmol/L
Increase from Baseline in Directly Measured NCC, Mean (SD) (copper; Study 204, Day 4, Pre-Dose): 2.677 (1.297) μmol/L
Increase from Baseline in Directly Measured NCC, Mean (SD) (copper; Study 204, Day 5, Pre-Dose): 3.144 (1.37) μmol/L
Increase from Baseline in Directly Measured NCC, Mean (SD) (copper; Study 204, Day 6, Pre-Dose): 3.574 (1.57) μmol/L
Increase from Baseline in Directly Measured NCC, Mean (SD) (copper; Study 204, Day 7, Pre-Dose): 3.7 (1.709) μmol/L
Increase from Baseline in Directly Measured NCC, Mean (SD) (copper; Study 204, Day 25, 2 Hours Post-Dose): 2.551 (1.063) μmol/L
Increase from Baseline in Directly Measured NCC, Mean (SD) (copper; Study 204, Day 25, 4 Hours Post-Dose): 3.443 (2.008) μmol/L
Increase from Baseline in Directly Measured NCC, Mean (SD) (copper; Study 204, Day 25, 5 Hours Post-Dose): 3.38 (2.478) μmol/L
Increase from Baseline in Directly Measured NCC, Mean (SD) (copper; Study 204, Day 25, 6 Hours Post-Dose): 4.44 (2.949) μmol/L
Increase from Baseline in Directly Measured NCC, Mean (SD) (copper; Study 204, Day 25, 8 Hours Post-Dose): 5.101 (2.491) μmol/L
Increase from Baseline in Directly Measured NCC, Mean (SD) (copper; Study 204, Day 25, 12 Hours Post-Dose): 4.917 (2.463) μmol/L
Increase from Baseline in Directly Measured NCC, Mean (SD) (copper; Study 204, Day 25, 24 Hours Post-Dose): 3.438 (1.754) μmol/L
Increase from Baseline in Directly Measured NCC, Mean (SD) (copper; Study 204, Day 25, −0.5 Hours): 2.121 (0.611) μmol/L
Increase from Baseline in Directly Measured NCC, Mean (SD) (copper; Study 204, Day 27, Pre-Dose): 2.767 (1.755) μmol/L
Increase from Baseline in Directly Measured NCC, Mean (SD) (copper; Study 204, Day 28, Pre-Dose): 2.327 (1.376) μmol/L
Increase from Baseline in Directly Measured NCC, Mean (SD) (copper; Study 204, Day 29, 2 Hours Post-Dose): 2.814 (0.884) μmol/L
Increase from Baseline in Directly Measured NCC, Mean (SD) (copper; Study 204, Day 29, 4 Hours Post-Dose): 3.38 (1.494) μmol/L
Increase from Baseline in Directly Measured NCC, Mean (SD) (copper; Study 204, Day 29, 5 Hours Post-Dose): 4.078 (1.939) μmol/L
Increase from Baseline in Directly Measured NCC, Mean (SD) (copper; Study 204, Day 29, 6 Hours Post-Dose): 4.686 (2.237) μmol/L
Increase from Baseline in Directly Measured NCC, Mean (SD) (copper; Study 204, Day 29, 8 Hours Post-Dose): 5.305 (2.311) μmol/L
Increase from Baseline in Directly Measured NCC, Mean (SD) (copper; Study 204, Day 29, 12 Hours Post-Dose): 4.749 (2.205) μmol/L
Increase from Baseline in Directly Measured NCC, Mean (SD) (copper; Study 204, Day 29, 24 Hours Post-Dose): 3.543 (1.397) μmol/L
Increase from Baseline in Directly Measured NCC, Mean (SD) (copper; Study 204, Day 29, −0.5 Hours): 2.662 (1.209) μmol/L
Increase from Baseline in Directly Measured NCC, Mean (SD) (copper; Study 204, Day 31, Pre-Dose): 4.121 (2.779) μmol/L
Increase from Baseline in Directly Measured NCC, Mean (SD) (copper; Study 204, Day 32, Pre-Dose (N=1)): 8.131 (NA) μmol/L
Increase from Baseline in Directly Measured NCC, Mean (SD) (copper; Study 204, Day 33, Pre-Dose): 4.231 (4.114) μmol/L
Increase from Baseline in Directly Measured NCC, Mean (SD) (copper; Study 204, Day 34, Pre-Dose): 4.103 (3.872) μmol/L
Increase from Baseline in Directly Measured NCC, Mean (SD) (copper; Study 204, Day 35, Pre-Dose): 4.49 (4.526) μmol/L
Increase from Baseline in Directly Measured NCC, Mean (SD) (copper; Study 204, Day 36, Pre-Dose): 3.465 (3.016) μmol/L
Increase from Baseline in Directly Measured NCC, Mean (SD) (copper; Study 204, Day 37, Pre-Dose): 4.168 (4.069) μmol/L
Increase from Baseline in Directly Measured NCC, Mean (SD) (copper; Study 204, Day 38, Pre-Dose (N=1)): 7.643 (NA) μmol/L
Increase from Baseline in Directly Measured NCC, Mean (SD) (copper; Study 204, Day 39, 2 Hours Post-Dose): 3.816 (3.943) μmol/L
Increase from Baseline in Directly Measured NCC, Mean (SD) (copper; Study 204, Day 39, 4 Hours Post-Dose): 5.578 (5.922) μmol/L
Increase from Baseline in Directly Measured NCC, Mean (SD) (copper; Study 204, Day 39, 5 Hours Post-Dose): 6.26 (6.245) μmol/L
Increase from Baseline in Directly Measured NCC, Mean (SD) (copper; Study 204, Day 39, 6 Hours Post-Dose): 6.659 (5.704) μmol/L
Increase from Baseline in Directly Measured NCC, Mean (SD) (copper; Study 204, Day 39, 8 Hours Post-Dose): 7.32 (6.096) μmol/L
Increase from Baseline in Directly Measured NCC, Mean (SD) (copper; Study 204, Day 39, 12 Hours Post-Dose): 6.554 (4.695) μmol/L
Increase from Baseline in Directly Measured NCC, Mean (SD) (copper; Study 204, Day 39, 24 Hours Post-Dose): 4.545 (3.677) μmol/L
Increase from Baseline in Directly Measured NCC, Mean (SD) (copper; Study 204, Day 39, −0.5 Hours): 3.412 (3.688) μmol/L
